The source of these data is patent US20240108740A1, “THERAPEUTIC COMPOSITIONS INCLUDING SPN10 AND USES THEREOF” (Stealth BioTherapeutics Inc., priority 2022, published 2024).

Residues, ends and D or L forms follow the SMILES beside them.

Test [1] relates to renal ischemia-reperfusion (IR) injury in rats. Briefly: Mitochondrial respiration and ATP synthesis after renal ischemia-reperfusion injury. The format is in vivo, rat. Particulars: 45 minutes renal artery occlusion, 20 minutes or 1 hour reperfusion. As for the experimental part: Animals will be subjected to bilateral occlusion of renal artery for 45 minutes followed by 20 minutes or 1 hour of reperfusion. Subjects will receive saline vehicle, a peptide conjugate (2.0 mg/kg s.c.), an aromatic-cationic peptide (an equivalent molar dose of aromatic-cationic peptide based on concentration of the aromatic-cationic peptide administered in the peptide conjugate group) SPN10 (an equivalent molar dose of SPN10 based on concentration of SPN10 administered in the peptide conjugate group), or SPN10(s) in combination with aromatic-cationic peptides (e.g., an equivalent molar dose of SPN10 based on the concentration of SPN10 administered in the peptide conjugate treatment group and an equivalent molar dose of aromatic-cationic peptide based on the concentration of aromatic-cationic peptide administered in the peptide conjugate treatment group) 30 minutes before ischemia and again at the time of reperfusion (n=4-5 in each group). It is anticipated that the peptide conjugate, aromatic-cationic peptide or SPN10(s) (with or without aromatic-cationic peptides) will improve oxygen consumption and ATP synthesis.

The next test deals with mice. Briefly: Example 57: Ang II-induced hypertensive cardiomyopathy. The format is in vivo, mouse. As for the experimental part: Mouse experiments, drug delivery, echocardiography and blood pressure measurement. Six to ten mice will be included in each experimental group (Saline, Ang II, Ang II+peptide conjugate, Ang II+aromatic-cationic peptide, Ang II+SPN10, Ang II+SPN10+aromatic-cationic peptide, WT, Gαq, Gαq+peptide conjugate, Gαq+aromatic-cationic peptide, Gαq+SPN10, Gαq+SPN10+aromatic-cationic peptide). A pressor dose of Ang II (1.1 mg/kg/d) will be continuously administered for 4 weeks using subcutaneous Alzet 1004 osmotic minipumps, either alone or in the presence of with peptide conjugates (3 mg/kg/d), aromatic-cationic peptides (an equivalent molar dose of aromatic-cationic peptide based on concentration of the aromatic-cationic peptide administered in the peptide conjugate group), SPN10(s) (an equivalent molar dose of SPN10 based on concentration of SPN10 administered in the peptide conjugate group), or SPN10(s) in combination with aromatic-cationic peptides (e.g., an equivalent molar dose of SPN10 based on the concentration of SPN10 administered in the peptide conjugate treatment group and an equivalent molar dose of aromatic-cationic peptide based on the concentration of aromatic-cationic peptide administered in the peptide conjugate treatment group). Echocardiography will be performed at baseline and 4 weeks after pump implantation using a Siemens Acuson CV-70 equipped with a 13 MHz probe. […] MTI will be calculated as the ratio of the sum of isovolemic contraction and relaxation time to LV ejection time. […]
Blood pressure will be measured in a separate group of mice by telemetry using an intravascular catheter PA-C 10 (DSI, MN), in which measurement will be performed every three hours starting from 2 days before pump placement until 2 days after Ang pump placement. […]
Quantitative Pathology. […] Quantitative analysis of fibrosis will be performed by measuring the percentage of blue-staining fibrotic tissue relative to the total cross-sectional area of the ventricles. […]

A further test relates to mitochondrial aconitase. Briefly: Example 53: mitochondrial aconitase activity in burn injury. Particulars: mouse, in vivo. From the text: Murine subjects will be subjected to burn injury or sham and administered peptide conjugates, aromatic-cationic peptides, SPN10(s) alone or in combination with aromatic-cationic peptides, or control vehicle as described above. Mitochondria will be isolated from burned and control tissues and mitochondrial aconitase activity assessed using a commercially available kit.

Another test concerns neonatal cardiomyocytes. Briefly: Example 57: Ang II-induced mitochondrial ROS (Mitosox, flow cytometry). Conditions: Angiotensin II 1 μM, 3 hours. The format is cell-based, mouse. As for the experimental part:
Ventricles from mouse neonates younger than 72 hours will be dissected, minced, and enzymatically digested with Blendzyme 4 (45 mg/mL, Roche). After enzymatic digestion, cardiomyocytes will be enriched using differential pre-plating for 2 hours, and seeded on fibronectin-coated culture dishes for 24 hours in DMEM (Gibco) with 20% Fetal Bovine Serum (Sigma) and 25 μM Arabinosylcytosine (Sigma). Cardiomyocytes will be stimulated with Angiotensin II (1 μM) for 3 hours in serum-free DMEM containing 0.5% insulin transferrin-selenium (Sigma), 2 mM glutamine, and 1 mg/mL BSA. […] Samples will be analyzed using excitation/emission of 488/625 nm by flow cytometry. Flow data will be analyzed using FCS Express (De Novo Software, Los Angeles, CA, U.S.A.), and presented as histogram distributions of Mitosox fluorescence intensity.
(In general: In flow cytometry, cells or beads pass a laser one at a time.)

As for `N=C(N)NCCC[C@H](NC(=O)[C@@H](N)Cc1c[nH]c2ccccc12)C(=O)N[C@@H](Cc1c[nH]c2ccccc12)C(=O)N[C@@H](CCCCN)C(N)=O` [SPN10, H-L-Trp-L-Arg-L-Trp-L-Lys-NH2] (H-WRWK-NH2), in test [1], the “oxygen consumption and ATP synthesis” value is on record as “improve”. Further, in the test on mice (4 weeks of Ang II), the “Ang II-induced ventricular fibrosis (trichrome)” value was “fully attenuated” and the “cardiac mitochondrial protein carbonyls” value was “significantly reduce cardiac mitochondrial protein carbonyls”. For the same compound, the “Ang II-induced cardiomyopathy” value in the test on mice (Ang II 1.1 mg/kg/d, 4 weeks) is “ameliorate Ang II-induced cardiomyopathy”. For the same compound, the “mitochondrial aconitase activity after burn injury” value in the test with mitochondrial aconitase is reported as “reduce mitochondrial aconitase activity to sham control levels”. Moreover, the “Ang II-induced Mitosox fluorescence (mitochondrial ROS)” value in the test with neonatal cardiomyocytes is given as “reduce Ang II-induced fluorescence to the level similar to that of saline-treated control cardiomyocytes”.
